# What was measured:
# cortical neurons = assay: Survival of cortical neurons in the presence of 10 μM Aβ42; type: cell-based, mouse; settings: for % Surviving Neurons: 10 μM Aβ42, 3 days; for Neuronal survival in the presence of Aβ42 (in words): 10 μM Aβ42, 0.01-1 μM agonist, compared to control cultures treated only with Aβ42
# Protocol: (§1) Neuronal cultures were prepared from embryonic E19 mouse embryos. Fetal brain cortices were dissected and freed from meninges. […] Cortical cells (1×10^5) were plated onto poly-L-lysine (10 μg/mL) coated glass coverslips in 24-well tissue culture plates. They were cultured in Neurobasal medium containing B27 supplement, 2 mM glutamine, 20 μg/mL penicillin stepromycin, and 0.25% glucose. They were maintained for 7 days before been treated. For each treatment, 3 coverslips were used and the experiment was repeated 3 times.
# (§2) After 3 days of culture, media was removed and Hoechst 33342 (10 μM) and propidium iodide (10 μM) in PBS was added to the wells for 15 minutes. Only neurons positive for Hoechst 33342 but negative for propidium iodide were counted as surviving neurons. In addition, cortical cultures were treated with agonist alone (0.1 μM) and assayed for chAT, APP, and ADAM10. The antibodies used were α chAT (1:200, Chemicon™), α APP (1:100, Chemicon™) and α ADAM10 (1:200, Chemicon™). Secondary antibody used was anti-rabbit Cy3 or Cy5 conjugated (Jackson™, used at 1:1000). The nuclear marker DAPI (1 μg/mL) was used to stain all cells.
# Cortical cultures were treated after 7 days with 10 μM Aβ42 and supplemented with 0.01-1 μM of agonist. After 3 days, the number of surviving cells was determined. […] As atRA is a weak pan-agonist of all the RARs, it was decided to identify the specific receptor involved in this process using RAR specific agonists.
# [1] = system: disintegrin-metalloproteinases 10 (ADAM10); assay: ADAM10 expression in cultured cortical neurons; type: cell-based, mouse; parameters: dose or concentration left out as unconfirmed; settings: Agonist; analysed 3 days later (Table 5, introduced as ADAM10 data)
# Protocol: as §1
# as §2, with “In addition, cortical cultures were treated with agonist alone (0.1 μM) and assayed for chAT, APP, and ADAM10.” left out, “cells. […]” for “cells.”
# [2] = system: choline acetyltransferase (chAT); assay: chAT expression in cultured cortical neurons; type: cell-based, mouse; parameters: dose or concentration left out as unconfirmed; settings: Agonist; analysed 3 days later
# Protocol: as §1
# as §2, with “In addition, cortical cultures were treated with agonist alone (0.1 μM) and assayed for chAT, APP, and ADAM10.” left out, “cells. […]” for “cells.”
# [3] = system: amyloid precursor protein (APP); assay: APP expression in cultured cortical neurons; type: cell-based, mouse; parameters: dose or concentration left out as unconfirmed; settings: Agonist; analysed 3 days later (Table 4)
# Protocol: as §1
# as §2, with “In addition, cortical cultures were treated with agonist alone (0.1 μM) and assayed for chAT, APP, and ADAM10.” left out, “cells. […]” for “cells.”
# RARα = target: T1, RARα (Homo sapiens, UniProt P10276); assay: Transactivation assay for RAR alpha (gal4-RAR fusion, luciferase reporter, COS-7 cells); type: cell-based; settings: for RARα/RARβ ratio (*): fold-selectivity for RARα over RARβ; for RARα activity ratio: ratio of test compound EC50 to that of atRA on the same plate
# T1 construct: gal4 (fusion partner); expressed in transfected cells; host or cells: COS-7
# T1 sequence (P10276 183-417 limits assumed): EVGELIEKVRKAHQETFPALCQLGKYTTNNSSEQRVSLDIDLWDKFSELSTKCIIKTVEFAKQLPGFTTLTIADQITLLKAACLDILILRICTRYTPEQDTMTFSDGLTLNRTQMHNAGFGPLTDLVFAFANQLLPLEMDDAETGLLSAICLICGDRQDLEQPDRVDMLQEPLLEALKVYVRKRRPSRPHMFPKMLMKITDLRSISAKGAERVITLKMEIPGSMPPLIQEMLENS
# Procedure, shortened: (§3)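 COS-7 cells co-transfected with gal4–RAR ligand-binding-domain fusion and pFR-luc reporter, then treated with compound in phenol-red-free DMEM (1% DMSO) for about one day. Luciferase read after lysis with BrightGlo; EC50 values from replicate experiments given as a ratio of means.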
# RARβ = target: T2, RARβ (Homo sapiens, UniProt P10826); assay: Transactivation assay for RAR beta (gal4-RAR fusion, luciferase reporter, COS-7 cells); type: cell-based; settings: ratio of test compound EC50 to that of atRA; inactive = no agonist action at the highest concentration tested
# T2 construct: gal4 (fusion partner); expressed in transfected cells; host or cells: COS-7
# T2 sequence (P10826 183-417 limits assumed): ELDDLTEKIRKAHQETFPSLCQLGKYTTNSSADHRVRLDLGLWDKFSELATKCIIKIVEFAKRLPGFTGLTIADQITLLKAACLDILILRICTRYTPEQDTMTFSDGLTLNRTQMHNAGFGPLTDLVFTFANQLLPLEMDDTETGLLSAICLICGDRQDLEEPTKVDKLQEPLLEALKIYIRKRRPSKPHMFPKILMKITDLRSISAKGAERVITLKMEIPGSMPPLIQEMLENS
# Procedure, shortened: as §3
# RARγ = target: T3, RARγ (Homo sapiens, UniProt P13631); assay: Transactivation assay for RAR gamma (gal4-RAR fusion, luciferase reporter, COS-7 cells); type: cell-based; settings: ratio of test compound EC50 to that of atRA; inactive = no agonist action at the highest concentration tested
# T3 construct: gal4 (fusion partner); expressed in transfected cells; host or cells: COS-7
# T3 sequence (P13631 185-419 limits assumed): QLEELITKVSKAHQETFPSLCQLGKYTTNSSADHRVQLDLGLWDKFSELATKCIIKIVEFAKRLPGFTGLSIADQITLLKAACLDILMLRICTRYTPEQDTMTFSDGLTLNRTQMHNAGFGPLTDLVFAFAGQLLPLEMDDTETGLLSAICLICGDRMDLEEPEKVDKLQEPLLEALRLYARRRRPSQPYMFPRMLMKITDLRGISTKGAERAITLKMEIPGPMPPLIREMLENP
# Procedure, shortened: as §3
RARα/RARβ ratio (*) (RARα),RARα activity ratio (RARα),RARβ activity ratio (RARβ),RARγ activity ratio (RARγ),SMILES,% Surviving Neurons (cortical neurons; 0.01 μM agonist) [%],% Surviving Neurons (cortical neurons; 0.1 μM agonist) [%],% Surviving Neurons (cortical neurons; 1.0 μM agonist) [%],Neuronal survival in the presence of Aβ42 (in words) (cortical neurons),Number of APP Neurons [1],Number of chAT Neurons [2],Number of APP Neurons [3]
,,,,COc1ccc(-c2ccc3cc(C(=O)O)ccc3c2)cc1C1(C)CCCCC1 [CD 2019],52 ± 3,58 ± 5,60 ± 5,notably worse,1 ± 0.5,8 ± 1,23 ± 2
9,15,140,3521,"COc1c(Cl)cc(C(=O)Nc2ccc(C(=O)O)cn2)cc1C(F)(F)F [AAA-065, 6-(3-Chloro-4-methoxy-5-(trifluoromethyl)benzamido)nicotinic acid]",,,,,,,
,,,,O=C(O)c1ccc2cc(-c3ccc(O)c(C45CC6CC(CC(C6)C4)C5)c3)ccc2c1 [CD 437],53 ± 3,30 ± 11,26 ± 10,notably worse,2 ± 0.75,2 ± 1,22 ± 3
27.3,180,4920,inactive,"CCOc1c(Cl)cc(C(=O)Nc2ccc(C(=O)O)nc2)cc1Cl [AAA-026, 5-(3,5-Dichloro-4-ethoxybenzamido)picolinic acid]",,,,,,,
27,2,53,1059,"O=C(O)c1ccc(NC(=O)c2cc(Cl)c(OC3CCC3)c(OC3CCC3)c2)cc1 [AAA-092, 4-(3-Chloro-4,5-di(cyclobutyloxy)benzamido)benzoic acid]",,,,,,,
55,1.1,60,194,"Cc1cc(NC(=O)c2cc(Cl)c(OC(C)C)c(C(F)(F)F)c2)ccc1C(=O)O [AAA-040, 4-(3-Chloro-4-isopropoxy-5-(trifluoromethyl)benzamido)-2-methylbenzoic acid]",,,,,,,
12.2,66,805,27200,"CCOc1c(Cl)cc(C(=O)Nc2ccc(C(=O)O)cc2)cc1OC [AAA-024, 4-(3-Chloro-4-ethoxy-5-methoxybenzamido)benzoic acid]",,,,,,,
58,2.6,151,100000,"CCOc1c(Cl)cc(C(=O)Nc2ccc(C(=O)O)c(C)c2)cc1OCC1CC1 [AAA-097, 4-(3-Chloro-5-(cyclopropylmethoxy)-4-ethoxybenzamido)-2-methylbenzoic acid]",,,,,,,
1212,2,2464,1268,"CC(C)Oc1cc(C(=O)Nc2ccc(C(=O)O)cc2)cc(OC(C)C)c1Cl [AAA-112, 4-(4-Chloro-3,5-diisopropoxybenzamido)benzoic acid]",,,,,,,
3.1,2.1,7,1203,"CCOc1cc(C(=O)Nc2ccc(C(=O)O)cc2)cc(Cl)c1OC(C)C [AAA-086, 4-(3-Chloro-5-ethoxy-4-isopropoxybenzamido)benzoic acid]",,,,,,,
7.1,90,642,inactive,"O=C(O)c1ccc(NC(=O)c2cc(Cl)cc(Cl)c2)cc1 [XXX-03, 4-(3,5-Dichlorobenzamido)benzoic acid, reference compound]",,,,,,,
192,26,5000,>42000,"CC(C)Oc1cc(C(=O)Nc2ccc(C(=O)O)cc2)cc(OC(C)C)c1F [AAA-119, 4-(4-Fluoro-3,5-diisopropoxybenzamido)benzoic acid]",,,,,,,
6,50,279,6047,"COc1c(Cl)cc(C(=O)Nc2ccc(C(=O)O)cc2F)cc1C(F)(F)F [AAA-067, 4-(3-Chloro-4-methoxy-5-(trifluoromethyl)benzamido)-3-fluorobenzoic acid]",,,,,,,
1,1,1,1,"CC1=C(/C=C/C(C)=C/C=C/C(C)=C/C(=O)O)C(C)(C)CCC1 [atRA, all trans retinoic acid]",53 ± 4,69 ± 4,82 ± 4,increase in cell survival with increasing dose,11 ± 1.5,16 ± 2,15 ± 2
31,5.2,160,13333,"CCOc1c(Br)cc(C(=O)Nc2ccc(C(=O)O)c(C)c2)cc1C(F)(F)F [AAA-071, 4-(3-Bromo-4-ethoxy-5-(trifluoromethyl)benzamido)-2-methylbenzoic acid]",,,,,,,
34,66,2245,2326,"CCOc1cc(C(=O)Nc2ccc(C(=O)O)cc2)cc(OCC)c1Br [AAA-106, 4-(4-Bromo-3,5-diethoxybenzamido)benzoic acid]",,,,,,,
68,5.4,369,6000,"CCOc1c(Br)cc(C(=O)Nc2ccc(C(=O)O)cc2)cc1C(F)(F)F [AAA-042, 4-(3-Bromo-4-ethoxy-5-(trifluoromethyl)benzamido)benzoic acid]",,,,,,,
23,1.7,39,375,"CCC(CC)Oc1cc(C(=O)Nc2ccc(C(=O)O)cc2)cc(Cl)c1OC [AAA-101, 4-(3-Chloro-4-methoxy-5-(pentan-3-yloxy)benzamido)benzoic acid]",,,,,,,
120,16,1921,>12000,"CCOc1cc(C(=O)Nc2ccc(C(=O)O)c(C)c2)cc(OCC)c1Br [AAA-110, 4-(4-Bromo-3,5-diethoxybenzamido)-2-methylbenzoic acid]",,,,,,,
